Laboratory results reported in article PMC8102414 (Heliyon, 2021).
In brackets after ≈: the same amount, converted by molar mass.

Legend:
[1] = tested on: Pseudomonas aeruginosa ATCC 10145; experiment: Antimicrobial MIC, 2-fold serial dilution; conditions: for MIC: Pseudomonas aeruginosa, ATCC10145, read-out: MIC (μg/mL) PA
[2] = tested on: Salmonella typhi DMST 22842; experiment: microbe, parasite or virus in culture; assay type: cell-based; conditions: for MIC (μg/mL) ST: Gram-negative, Salmonella typhi (DMST 22842), Inactive at >128 μg/mL; for MIC: Salmonella enterica, TYPHI, read-out: MIC (μg/mL) ST
[3] = tested on: methicillin resistant Staphylococcus aureus NPRC 001R; experiment: Antimicrobial MIC, 2-fold serial dilution; conditions: for MIC (μg/mL) MRSA: Gram-positive, Methicillin Resistant Staphylococcus aureus (NPRC 001R), Inactive at >128 μg/mL
[4] = tested on: advanced glycation end products (AGEs); experiment: Glycation inhibition assay; assay type: biochemical; conditions: Inactive at >100 μM; for IC50: read-out: Glycation inhibition (IC50)
[5] = tested on: Micrococcus luteus DMST 15503; experiment: Antimicrobial MIC, 2-fold serial dilution; conditions: for MIC (μg/mL) MT: Gram-positive, Micrococcus luteus (DMST 15503), Inactive at >128 μg/mL; for MIC: Micrococcus luteus, DMST15503, read-out: MIC (μg/mL) MT
RAW 264.7 cells = experiment: Nitric oxide production inhibition assay; assay type: cell-based; conditions: for NO Inhibition (IC50, μM): LPS-stimulated NO production in RAW 264.7 cells, Inactive at >100 μM
[6] = tested on: Escherichia coli TISTR 780; experiment: Antimicrobial MIC, 2-fold serial dilution; conditions: for MIC: Escherichia coli, TISTR780, read-out: MIC (μg/mL) EC; for MIC (μg/mL) EC: Gram-negative, Escherichia coli (TISTR 780), Inactive at >128 μg/mL
[7] = tested on: Staphylococcus aureus ATCC 25923; experiment: Antimicrobial MIC, 2-fold serial dilution; conditions: for MIC (μg/mL) SA: Gram-positive, Staphylococcus aureus (ATCC 25923), Inactive at >128 μg/mL; for MIC: Staphylococcus aureus, ATCC25923, read-out: MIC (μg/mL) SA
[8] = tested on: Enterococcus faecalis ATCC 29212; experiment: Antimicrobial MIC, 2-fold serial dilution; conditions: for MIC (μg/mL) EF: Gram-positive, Enterococcus faecalis (ATCC 29212), Inactive at >128 μg/mL; for MIC: Enterococcus faecalis, ATCC29212, read-out: MIC (μg/mL) EF
[9] = tested on: Streptococcus pyogenes ATCC, 19615; experiment: Antimicrobial MIC, 2-fold serial dilution; conditions: for MIC (μg/mL) SP: Gram-positive, Streptococcus pyogenes (ATCC, 19615), Inactive at >128 μg/mL; for MIC: Streptococcus pyogenes, read-out: MIC (μg/mL) SP
[10] = tested on: Shigella flexneri DMST 4423; experiment: Antimicrobial MIC, 2-fold serial dilution; conditions: for MIC (μg/mL) SF: Gram-negative, Shigella flexneri (DMST 4423), Inactive at >128 μg/mL; for MIC: Shigella flexneri, DMST4423, read-out: MIC (μg/mL) SF
[11] = tested on: Salmonella typhimurium DMST 562; experiment: Antimicrobial MIC, 2-fold serial dilution; conditions: for MIC: Salmonella enterica, TYPHIMURIUM, read-out: MIC (μg/mL) STR; for MIC (μg/mL) STR: Gram-negative, Salmonella typhimurium (DMST 562), Inactive at >128 μg/mL
3T3-L1 adipocyte cells = experiment: Glucose consumption assay; assay type: cell-based; conditions: induction of glucose consumption, 3T3-L1 adipocyte cells; Inactive at >100 μM
[12] = tested on: Candida albicans ATCC 10231; experiment: Antimicrobial MIC, 2-fold serial dilution; conditions: for MIC (μg/mL) CA: Fungi, Candida albicans (ATCC 10231), Inactive at >128 μg/mL; for MIC: Candida albicans, ATCC10231, read-out: MIC (μg/mL) CA

Row | Structure (SMILES) | MIC [1] | MIC (μg/mL) ST [2] | MIC (μg/mL) MRSA [3] | Glycation inhibition (IC50, μM) [4] | MIC (μg/mL) MT [5] | NO Inhibition (IC50, μM) (RAW 264.7 cells) | MIC [6] | MIC (μg/mL) SA [7] | MIC (μg/mL) EF [8] | MIC (μg/mL) SP [9] | MIC (μg/mL) SF [10] | Glucose consumption (IC50, μM) (3T3-L1 adipocyte cells) | MIC (μg/mL) CA [12] | MIC [2] | MIC [8] | MIC (μg/mL) STR [11] | MIC (μg/mL) EC [6] | MIC [7] | further results
1 | COc1ccc2c3c(oc2c1CC=C(C)C)-c1ccc(O)cc1OC3 [Compound 3, eryvarin D] | 128 µg/mL (≈ 381 µM) | Inactive | Inactive | Inactive | Inactive | Inactive | 128 µg/mL (≈ 381 µM) | Inactive | Inactive | Inactive | Inactive | Inactive | Inactive |  |  |  |  |  | MIC [11]: 128 µg/mL (≈ 381 µM)
2 | O=c1oc2cc(O)ccc2c2oc3cc(O)ccc3c12 [Compound 6, coumestrol] | 128 µg/mL (≈ 477 µM) |  |  | Inactive | Inactive | Inactive | 128 µg/mL (≈ 477 µM) | Inactive |  | Inactive |  | Inactive |  | 128 µg/mL (≈ 477 µM) | 128 µg/mL (≈ 477 µM) | Inactive |  |  | MIC [10]: 128 µg/mL (≈ 477 µM); MIC [12]: 128 µg/mL (≈ 477 µM)
3 | CC(C)=CCc1c(O)ccc2c1O[C@H]1c3ccc(O)cc3OC[C@@H]21 [Compound 11, phaseollidin] | 128 µg/mL (≈ 395 µM) |  |  | Inactive |  | Inactive |  |  |  |  | Inactive | Inactive |  | 128 µg/mL (≈ 395 µM) | 128 µg/mL (≈ 395 µM) | Inactive | Inactive |  | MIC [5]: 128 µg/mL (≈ 395 µM); MIC [12]: 128 µg/mL (≈ 395 µM)
4 | O=C1C[C@@H](c2ccccc2)Oc2cc(O)cc(O)c21 [Compound 15, pinocembrin] | 128 µg/mL (≈ 499 µM) | Inactive | Inactive |  | Inactive | Inactive | 128 µg/mL (≈ 499 µM) |  | Inactive | Inactive |  | Inactive | Inactive |  |  | Inactive |  | 128 µg/mL (≈ 499 µM) | IC50 [4]: 83.1 ± 0.94 µM; MIC [10]: 128 µg/mL (≈ 499 µM)
5 | O=c1c(O)c(-c2ccc(O)cc2)oc2ccc(O)cc12 [Compound 16, 3,6,4′-trihydroxyflavone] | 128 µg/mL (≈ 474 µM) | Inactive | Inactive | Inactive | Inactive |  | 128 µg/mL (≈ 474 µM) |  | Inactive | Inactive | Inactive | Inactive | Inactive |  |  | Inactive |  | 128 µg/mL (≈ 474 µM) | IC50 (RAW 264.7 cells; Mus musculus, RAW264.7, read-out: NO Inhibition (IC50, μM)): 96.2 ± 1.61 µM
6 | O=c1c(O)c(-c2ccccc2)oc2ccc(O)cc12 [Compound 17, 3,6-dihydroxyflavone] | 128 µg/mL (≈ 503 µM) | Inactive | Inactive | Inactive | Inactive | Inactive |  |  | Inactive | Inactive | Inactive | Inactive | Inactive |  |  | Inactive | Inactive | 128 µg/mL (≈ 503 µM) | 
7 | COc1cc(O)cc2oc(-c3ccccc3)cc(=O)c12 [Compound 18, 5-methoxy-7-hydroxyflavone] | 128 µg/mL (≈ 477 µM) |  | Inactive | Inactive | Inactive | Inactive | 128 µg/mL (≈ 477 µM) |  | Inactive | Inactive | Inactive | Inactive | Inactive | 128 µg/mL (≈ 477 µM) |  | Inactive |  | 128 µg/mL (≈ 477 µM) | 
8 | CC(C)=CCc1cc(-c2coc3c(CC=C(C)C)c(O)ccc3c2=O)ccc1O [Compound 20, erysubin F] |  | Inactive | Inactive | Inactive | Inactive | Inactive |  |  |  | Inactive | Inactive | Inactive |  |  | 128 µg/mL (≈ 328 µM) | Inactive | Inactive |  | MIC (μg/mL) PA ([1]; Gram-negative, Pseudomonas aeruginosa (ATCC 10145), Inactive at >128 μg/mL): Inactive
9 | O=c1c(-c2ccc(O)cc2)coc2cc(O)cc(O)c12 [Compound 21, genistein] | 128 µg/mL (≈ 474 µM) | Inactive | Inactive | Inactive | Inactive | Inactive |  | Inactive | Inactive | Inactive | Inactive | Inactive | Inactive |  |  | Inactive | Inactive |  | 
10 | CC(C)=CCc1cc([C@@H]2CC(=O)c3c(O)cc(O)cc3O2)cc(CC=C(C)C)c1O [Compound 25, abyssinone V] | 128 µg/mL (≈ 313 µM) |  | Inactive | Inactive |  | Inactive |  |  | Inactive |  |  | Inactive | Inactive | 128 µg/mL (≈ 313 µM) |  |  | Inactive | 128 µg/mL (≈ 313 µM) | MIC [5]: 128 µg/mL (≈ 313 µM); MIC [9]: 128 µg/mL (≈ 313 µM); MIC [10]: 128 µg/mL (≈ 313 µM); MIC [11]: 128 µg/mL (≈ 313 µM)
11 | COc1ccc(C=CC(=O)O)c(O)c1 [Compound 28, 2-hydroxy-4-methoxy-cinnamic acid] | 128 µg/mL (≈ 659 µM) | Inactive | Inactive | Inactive | Inactive | Inactive |  | Inactive | Inactive | Inactive | Inactive | Inactive | Inactive |  |  | Inactive | Inactive |  | 
12 | O=c1c(O)c(-c2ccc(O)c(O)c2)oc2cc(O)cc(O)c12 [Quercetin, quercetin, reference compound] |  |  |  |  |  |  |  |  |  |  |  |  |  |  |  |  |  |  | IC50 [4]: 59.1 ± 0.78 µM
13 | CN[C@H](CC(C)C)C(=O)N[C@H]1C(=O)N[C@@H](CC(N)=O)C(=O)N[C@H]2C(=O)N[C@H]3C(=O)N[C@H](C(=O)N[C@H](C(=O)O)c4cc(O)cc(O)c4-c4cc3ccc4O)[C@H](O)c3ccc(c(Cl)c3)Oc3cc2cc(c3O[C@@H]2O[C@H](CO)[C@@H](O)[C@H](O)[C@H]2O[C@H]2C[C@](C)(N)[C@H](O)[C@H](C)O2)Oc2ccc(cc2Cl)[C@H]1O [Vancomycin, vancomycin, reference compound] |  |  |  |  |  |  |  |  |  |  |  |  |  |  | 2 µg/mL (≈ 1.38 µM) |  |  | 0.5 µg/mL (≈ 0.345 µM) | MIC ([3]; Staphylococcus aureus, MRSA, read-out: MIC (μg/mL) MRSA): 1 µg/mL (≈ 0.69 µM); MIC [5]: 2 µg/mL (≈ 1.38 µM); MIC [9]: 2 µg/mL (≈ 1.38 µM); MIC [12]: 4 µg/mL (≈ 2.76 µM)
